Columns and labels:
[1] = biological target: T1, testosterone (T) production in NCI-H295R cells (Homo sapiens, UniProt P05108); assay: H295R Steroid Biosynthesis Inhibition Assay - inhibition of testosterone (T) production in NCI-H295R cells; assay type: cell-based; conditions: 48 h, LC-MS/MS, read-out: Inh. of T IC50
T1 construct: testosterone measured by LC-MS/MS as downstream steroid
T1 sequence (P05108 40-521): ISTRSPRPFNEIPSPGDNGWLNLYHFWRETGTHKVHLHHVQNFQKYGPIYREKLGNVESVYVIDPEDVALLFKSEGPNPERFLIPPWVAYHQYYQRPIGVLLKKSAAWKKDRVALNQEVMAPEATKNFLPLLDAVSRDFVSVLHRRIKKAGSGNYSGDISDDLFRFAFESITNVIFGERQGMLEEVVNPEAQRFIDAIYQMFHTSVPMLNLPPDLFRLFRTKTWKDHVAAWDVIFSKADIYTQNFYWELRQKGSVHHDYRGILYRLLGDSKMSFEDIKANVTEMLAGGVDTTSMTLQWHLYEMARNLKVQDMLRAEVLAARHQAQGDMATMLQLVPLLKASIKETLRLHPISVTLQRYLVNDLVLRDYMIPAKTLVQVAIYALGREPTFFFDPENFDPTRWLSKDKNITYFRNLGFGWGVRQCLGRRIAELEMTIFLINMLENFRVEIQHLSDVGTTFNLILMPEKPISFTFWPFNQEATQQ
Description: (§1) Steroid Biosynthesis Inhibition by test compounds in NCI-H295R cells (ATCC) was studied by measuring the cellular production of pregnenolone (P) catalyzed by CYP11A1 and the downstream steroid, testosterone (T). Cells were cultured in Dulbecco's modified eagle's medium F12 (DMEM/F12) with phenol red (Gibco, Cat. No. 11330032) supplemented with 2% UltroserG (Pall, Cat. No. 15950-017, USA), 1% ITS-Premix and 1% penicillin and streptomycin (Hyclone, Cat. No. SV30010, USA). Prior to the assay, cells were thawed and passed 4 times. The maximal passage number used for the assay was 10. For this assay, DMEM/F12 without phenol red supplemented with 10% charcoal-stripped fetal bovine serum (VivaCell, Cat. No. C3830-0500, USA) were used. In a 96-well plate, 60,000 cells/well were plated (90 μL/well) and incubated for 24 h. Test compounds, diluted in a serial dilution ranging from 1000 nM to 0.15 nM in the assay medium, were added to the plate. After 48 h of incubation, solution from each well were collected and transferred to individual 1.5 mL centrifuge tubes, and then 5 ng/mL deuterated testosterone (D3-testosterone) and 50 ng/mL deuterated pregnenolone (D4-pregnenolone) in 200 μL acetonitrile were added. After vigorously mixing for 5 min, the mixture was centrifuged at 12,700 rpm for 15 min. An aliquot of 250 μL supernatant was collected and dried under N2 stream. After addition of 150 μL Methanol:water (1:1, v/v) to the dried product, 50 μL sample of this solution was injected into the LC-MS/MS system for analysis.
(§2) The half-maximal inhibitory concentration (IC50) for steroid biosynthesis inhibition was determined by curve-fitting with the 4-variable inhibitory dose response equation using GraphPad Prism software.
(§3) Testosterone and pregnenolone were analyzed using Shimadzu LC30AD HPLC system (Shimadzu, Kyoto, Japan) coupled with AB SCIEX Qtrap 5500 triple quadrupole mass spectrometer (AB Sciex, Framingham, MA, USA) via ESI interface in the positive ionization mode. An ACQUITY UPLC BEH Shield RP18 column (1.7 μm, 2.1×50 mm, Milford, MA, USA) maintained at 40° C. was used to separate analytes and IS form the sample matrix.
(§4) The mobile phase was a mixture of 10 mM ammonium acetate in water containing 0.2% formic acid (A) and methanol containing 0.2% formic acid (B) at a flow rate of 0.6 mL/min. The gradient program was set as follows: from 0 min to 0.5 min, 60% B; from 0.5 min to 3.5 min, 90% B; from 3.5 min to 4.5 min, 90% B; from 4.51 min to 5.0 min, 60% B. The injection volume was […].
(§5) The MS/MS parameters were set as follows: ion spray voltage, 5500 V; curtain gas, 35 psi; Gas 1, 55 psi; Gas 2: 55 psi; temperature, […]. The optimized multiple reaction monitoring (MRM) fragmentation transitions and MS parameters of each analyte are summarized in Table 1.

CYP11A1 = biological target: T2, CYP11A1 (Homo sapiens, UniProt P05108); assay: H295R Steroid Biosynthesis Inhibition Assay - inhibition of pregnenolone (P) production catalyzed by CYP11A1 in NCI-H295R cells; assay type: cell-based; conditions: 48 h, LC-MS/MS, read-out: Inh. of P IC50
T2 construct: measuring the cellular production of pregnenolone (P) catalyzed by CYP11A1; host or cells: NCI-H295R
T2 sequence (P05108 40-521): T1 sequence (P05108 40-521)
Description: as §1, §2, §3, §4, §5

SMILES	IC50 [1] [nM]	IC50 (CYP11A1) [nM]
O=S(=O)(C1CC1)N1CCC(c2cnc3cc(CN4Cc5ccccc5C4)ccc3n2)CC1 [Compound 95]	≤ 40	≤ 40
CS(=O)(=O)N1CCC(c2ccc3cc(CN4Cc5ccccc5C4)ncc3c2)CC1 [Compound 68]	≤ 40	≤ 40
CS(=O)(=O)N1C[C@@H]2[C@H](C1)[C@H]2c1cc2oc(CN3Cc4ccccc4C3)cc(=O)c2o1 [Compound 13, 5-(isoindolin-2-ylmethyl)-2-((1R,5S,6r)-3-(methylsulfonyl)-3-azabicyclo[3.1.0]hexan-6-yl)-7H-furo[3,2-b]pyran-7-one]	≤ 40	≤ 40
COc1ccc2c(c1)CN(Cc1cc(=O)c3oc(C4CCN(S(C)(=O)=O)CC4)cc3o1)C2 [Compound 19]	≤ 40	≤ 40
O=c1cc(CN2Cc3ccccc3C2)oc2cc(C3CCC(F)(F)CC3)oc12 [Compound 26]	≥ 101	40 to 100
O=S(=O)(N1CCC(c2cnc3cc(CN4Cc5ccccc5C4)ccc3n2)CC1)C(F)(F)F [Compound 97]	≥ 101	40 to 100
CCCCS(=O)(=O)N1CCC(c2cnc3cc(CN4Cc5ccccc5C4)ccc3n2)CC1 [Compound 93]	≤ 40	≤ 40
CS(=O)(=O)N1C[C@@H]2[C@H](C1)[C@H]2c1cnc2cc(CN3Cc4ccccc4C3)ccc2n1 [Compound 86]	41 to 100	≤ 40
CS(=O)(=O)N1CCC(COc2ccc(CN3Cc4ccccc4C3)c3ccccc23)CC1 [Compound 7]	≤ 40	≤ 40
CS(=O)(=O)N1CCC(COc2coc(CN3CCc4sccc4C3)cc2=O)CC1 [Compound 5]	≥ 101	≥ 100
Cc1nc(C2CCN(S(C)(=O)=O)CC2)nc2ccc(CN3Cc4ccccc4C3)cc12 [Compound 83]	≤ 40	≤ 40
CC(c1ccc(OCC2CCN(S(C)(=O)=O)CC2)c2ncccc12)N1Cc2ccccc2C1 (centres unmarked) [Compound 9]	≤ 40	≤ 40
CS(=O)(=O)N1CC2(CC(c3ccc4cc(CN5Cc6ccccc6C5)ccc4n3)C2)C1 [Compound 75]	≤ 40	≤ 40
NC(=O)[C@H]1CC[C@H](c2cc3oc(CN4Cc5ccccc5C4)cc(=O)c3o2)CC1 [Compound 46]	≤ 40	≤ 40
CS(=O)(=O)N1CCC(c2cc(=O)c3cc(CN4Cc5ccccc5C4)ccc3o2)CC1 [Compound 60]	≤ 40	≤ 40
O=c1cc(CN2Cc3ccccc3C2)oc2cc(C3C4CC(O)CC43)oc12 (centres unmarked) [Compound 39]	≤ 40	≤ 40
COC(=O)N[C@H]1CC[C@H](c2cc3oc(CN4Cc5ccccc5C4)cc(=O)c3o2)CC1 [Compound 45]	≤ 40	≤ 40
CS(=O)(=O)N1CCC(c2cnc3cc(CN4Cc5ccc(OC(F)F)cc5C4)ccc3n2)CC1 [Compound 89]	≤ 40	≤ 40
CN(C)C(=O)N1CCC(c2cnc3cc(CN4Cc5ccccc5C4)ccc3n2)CC1 [Compound 121]	41 to 100	≤ 40
CO[C@H]1CC[C@H](c2cc3oc(CN4Cc5ccccc5C4)cc(=O)c3o2)CC1 [Compound 38]	≤ 40	≤ 40
O=c1cc(CN2Cc3ccccc3C2)oc2cc([C@H]3CC[C@H](O)CC3)oc12 [Compound 29]	≤ 40	≤ 40
CS(=O)(=O)N1CCC(c2ccc3cc(CN4Cc5ccccc5C4)ccc3n2)CC1 [Compound 71]	≤ 40	≤ 40
CNS(=O)(=O)N1CCC(c2cnc3cc(CN4Cc5ccccc5C4)ccc3n2)CC1 [Compound 100]	≤ 40	≤ 40

SMILES	IC50 [1] [nM]	IC50 (CYP11A1) [nM]
O=C(c1nccs1)N1CCC(c2cnc3cc(CN4Cc5ccccc5C4)ccc3n2)CC1 [Compound 109]	41 to 100	40 to 100
CS(=O)(=O)N[C@H]1CC[C@H](c2cc3oc(CN4Cc5ccccc5C4)cc(=O)c3o2)CC1 [Compound 44]	≤ 40	≤ 40
CS(=O)(=O)N1CCC(c2ccc3cc(CN4Cc5ccccc5C4)cnc3n2)CC1 [Compound 78]	≤ 40	≤ 40
CS(=O)(=O)N1CCC(n2cc3ccc(CN4Cc5ccccc5C4)cc3n2)CC1 [Compound 131]	≤ 40	≤ 40
CS(=O)(=O)N1CCC(COc2ccc(CN3CCc4ccccc4C3)c3cccnc23)CC1 [Compound 8]	≤ 40	≤ 40
CN(C)S(=O)(=O)N1CCC(c2cnc3cc(CN4Cc5ccccc5C4)ccc3n2)CC1 [Compound 99]	41 to 100	40 to 100
O=S(=O)(C1CCCC1)N1CCC(c2cnc3cc(CN4Cc5ccccc5C4)ccc3n2)CC1 [Compound 96]	≤ 40	≤ 40
CS(=O)(=O)N1CCC(c2ccc3oc(CN4Cc5ccccc5C4)cc(=O)c3c2)CC1 [Compound 57]	≤ 40	≤ 40
Cn1ccnc1C(=O)N1CCC(c2cnc3cc(CN4Cc5ccccc5C4)ccc3n2)CC1 [Compound 108]	≥ 101	40 to 100
COc1ccc2c(c1)CN(Cc1ccc3nc(C4CCN(S(C)(=O)=O)CC4)ccc3c1)C2 [Compound 73]	≤ 40	≤ 40
C[C@]1(c2cc3oc(CN4Cc5ccccc5C4)cc(=O)c3o2)CC[C@H](O)CC1 [Compound 41]	≤ 40	≤ 40
CS(=O)(=O)N1CCC(c2ccc3cc(CN4CCn5cccc5C4)ccc3n2)CC1 [Compound 76]	≥ 101	40 to 100
COC(=O)N1CCC(c2cc3oc(CN4Cc5ccccc5C4)cc(=O)c3o2)CC1 [Compound 15]	≤ 40	≤ 40
CCOC(=O)N1CCC(c2cnc3cc(CN4Cc5ccccc5C4)ccc3n2)CC1 [Compound 111]	≤ 40	≤ 40
O=c1cc(CN2Cc3ccccc3C2)oc2cc([C@H]3CC[C@@]4(O)CC4C3)oc12 (some centres unmarked) [Compound 40]	≤ 40	≤ 40
O=c1cc(CN2Cc3ccccc3C2)occ1OC[C@H]1CC[C@H](O)CC1 [Compound 2]	≤ 40	≤ 40
CS(=O)(=O)Nc1ccc(-c2cc3oc(CN4Cc5ccccc5C4)cc(=O)c3o2)cc1 [Compound 52]	≤ 40	≤ 40
O=c1cc(CN2CCn3cccc3C2)oc2cc([C@H]3CC[C@H](O)CC3)oc12 [Compound 54]	41 to 100	≤ 40
Cn1c(C2CCN(S(C)(=O)=O)CC2)nc2ccc(CN3Cc4ccccc4C3)cc21 [Compound 130]	≥ 101	≤ 40
N#C[C@]1(c2cc3oc(CN4Cc5ccccc5C4)cc(=O)c3o2)CC[C@H](O)CC1 [Compound 43]	41 to 100	≤ 40
COC(=O)N1CCC(c2cnc3cc(CN4Cc5ccccc5C4)ccc3n2)CC1 [Compound 110]	≤ 40	≤ 40
CS(=O)(=O)N1CCC(c2cnc3cc(CN4Cc5ccc(C(F)(F)F)cc5C4)ccc3n2)CC1 [Compound 90]	≤ 40	≤ 40
C[C@]1(O)CC[C@@H](c2cc3oc(CN4Cc5ccccc5C4)cc(=O)c3o2)CC1 [Compound 28]	≥ 101	≤ 40
